From the supplement of paper PMC11061612

Experiments:
WIL2-NS (Non-Cancerous) [1] = test: combination Emax (second highest fraction inhibited in the dose matrix, 72 h); higher = more inhibition; extreme values may be limits of the assay
In short: (§1)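 Cell lines grown in DMEM/F12 or RPMI with 10% FBS were plated in 1536-well plates and held 24 hours at 37°C, 5% CO2 before 72 hours of exposure to two-drug dose matrices, with DMSO typically at 0.2%. CellTiter-Glo 2.0 luminescence gave viability, which was converted to inhibition. Vehicle wells were set to 0 and blank wells to 1. Combination Emax is the second-highest inhibition in the matrix, and Bliss excess is the observed combination effect minus the expected EA + EB − EA·EB, where EA and EB are the single-agent effects.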

[2] = test system: GR-ST (B-Lymphoblastic Leukemia); test: as above
In short: as §1

[3] = test system: BFTC-905 (Bladder Carcinoma); test: as above
In short: as §1

[4] = test system: CAMA-1 (Breast Carcinoma); test: as above
In short: as §1

[5] = test system: SR (Other Blood Carcinomas); test: as above
In short: as §1

[6] = test system: SW1417 (Colorectal Carcinoma); test: as above
In short: as §1

[7] = test system: SW837 (Colorectal Carcinoma); test: as above
In short: as §1

[8] = test system: NCI-H1792 (Lung Adenocarcinoma); test: as above
In short: as §1

ES1 (Ewing's Sarcoma) [9] = test: as above
In short: as §1

[10] = test system: L-540 (Hodgkin's Lymphoma); test: as above
In short: as §1

[11] = test system: DND-41 (T-Lymphoblastic Leukemia); test: as above
In short: as §1

NCI-H2818 (Mesothelioma) [12] = test: as above
In short: as §1

[13] = test system: K-562 (Chronic Myelogenous Leukemia); test: as above
In short: as §1

[14] = test system: BL-41 (Burkitt's Lymphoma); test: as above
In short: as §1

ES8 (Ewing's Sarcoma) [15] = test: as above
In short: as §1

WM-115 (Melanoma) [16] = test: as above
In short: as §1

[17] = test system: MKN28 (Gastric Carcinoma); test: as above
In short: as §1

WIL2-NS (Non-Cancerous) [18] = test: Bliss excess, mean over the matrix (fraction); higher = more synergy
In short: as §1

[19] = test system: GR-ST (B-Lymphoblastic Leukemia); test: as above
In short: as §1

[20] = test system: BFTC-905 (Bladder Carcinoma); test: as above
In short: as §1

[21] = test system: CAMA-1 (Breast Carcinoma); test: as above
In short: as §1

[22] = test system: SR (Other Blood Carcinomas); test: as above
In short: as §1

[23] = test system: SW1417 (Colorectal Carcinoma); test: as above
In short: as §1

[24] = test system: SW837 (Colorectal Carcinoma); test: as above
In short: as §1

[25] = test system: NCI-H1792 (Lung Adenocarcinoma); test: as above
In short: as §1

ES1 (Ewing's Sarcoma) [26] = test: as above
In short: as §1

[27] = test system: L-540 (Hodgkin's Lymphoma); test: as above
In short: as §1

[28] = test system: DND-41 (T-Lymphoblastic Leukemia); test: as above
In short: as §1

NCI-H2818 (Mesothelioma) [29] = test: as above
In short: as §1

[30] = test system: K-562 (Chronic Myelogenous Leukemia); test: as above
In short: as §1

[31] = test system: BL-41 (Burkitt's Lymphoma); test: as above
In short: as §1

ES8 (Ewing's Sarcoma) [32] = test: as above
In short: as §1

WM-115 (Melanoma) [33] = test: as above
In short: as §1

[34] = test system: MKN28 (Gastric Carcinoma); test: as above
In short: as §1
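Wherever Bliss excess, mean over the matrix is given: after 72 h of two-drug dosing.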

| SMILES | combination Emax (WIL2-NS (Non-Cancerous) [1]) | combination Emax [2] | combination Emax [3] | combination Emax [4] | combination Emax [5] | combination Emax [6] | combination Emax [7] | combination Emax [8] | combination Emax (ES1 (Ewing's Sarcoma) [9]) | combination Emax [10] | combination Emax [11] | combination Emax (NCI-H2818 (Mesothelioma) [12]) | combination Emax [13] | combination Emax [14] | combination Emax (ES8 (Ewing's Sarcoma) [15]) | combination Emax (WM-115 (Melanoma) [16]) | combination Emax [17] | Bliss excess (WIL2-NS (Non-Cancerous) [18]) | Bliss excess [19] | Bliss excess [20] | Bliss excess [21] | Bliss excess [22] | Bliss excess [23] | Bliss excess [24] | Bliss excess [25] | Bliss excess (ES1 (Ewing's Sarcoma) [26]) | Bliss excess [27] | Bliss excess [28] | Bliss excess (NCI-H2818 (Mesothelioma) [29]) | Bliss excess [30] | Bliss excess [31] | Bliss excess (ES8 (Ewing's Sarcoma) [32]) | Bliss excess (WM-115 (Melanoma) [33]) | Bliss excess [34] |
| --- | --- | --- | --- | --- | --- | --- | --- | --- | --- | --- | --- | --- | --- | --- | --- | --- | --- | --- | --- | --- | --- | --- | --- | --- | --- | --- | --- | --- | --- | --- | --- | --- | --- | --- |
| CN(CCO)CC[C@H](CSc1ccccc1)Nc1ccc(S(=O)(=O)NC(=O)c2ccc(N3CCC([C@@H](O)c4ccccc4-c4ccc(Cl)cc4)CC3)cc2)cc1S(=O)(=O)C(F)(F)F [AZD4320] + Nc1ccn([C@@H]2O[C@H](CO)[C@@H](O)C2(F)F)c(=O)n1 [Gemcitabine] (first compound max 1 µM, 7x7, partner max 0.3 µM) | 0.987 | 0.765 | 0.9 | 0.651 | 1 | 0.49 | 0.475 | 0.823 | 1 | 0.951 | 1 | 0.717 | 0.353 | 1 | 1 | 0.688 | 0.283 | 0.0107 | -0.0009 | 0.0207 | 0.063 | 0.053 | -0.0377 | -0.0331 | 0.0469 | -0.0239 | -0.0365 | 0.0375 | 0.0008 | 0.0054 | -0.0094 | 0.0312 | 0.0125 | -0.0338 |
| Cc1c2c(nn1C)CSCc1cc(n(C)n1)CSc1cc(c3ccccc3c1)OCCCc1c(C(=O)O)n(C)c3c-2c(Cl)ccc13 [AZD5991] + CC(=O)O[C@H]1C(=O)[C@@]2(C)[C@H]([C@H](OC(=O)c3ccccc3)[C@]3(O)C[C@H](OC(=O)[C@H](O)[C@@H](NC(=O)c4ccccc4)c4ccccc4)C(C)=C1C3(C)C)[C@]1(OC(C)=O)CO[C@@H]1C[C@@H]2O [Paclitaxel] (first compound max 1 µM, 7x7, partner max 3 µM) | 0.824 | 0.805 | 0.975 | 0.957 | 1 | 0.529 | 0.62 | 0.959 | 1 | 1 | 0.251 | 0.599 | 0.877 | 1 | 1 | 0.631 | 0.49 | -0.137 | -0.0628 | 0.0108 | 0.117 | 0.0191 | 0.0164 | -0.0327 | -0.0037 | -0.0419 | 0.0087 | 0.0348 | -0.0054 | -0.0245 | -0.0098 | 0.0091 | -0.0392 | -0.011 |
| Cc1c2c(nn1C)CSCc1cc(n(C)n1)CSc1cc(c3ccccc3c1)OCCCc1c(C(=O)O)n(C)c3c-2c(Cl)ccc13 [AZD5991] + CS(=O)(=O)CCNCc1ccc(-c2ccc3ncnc(Nc4ccc(OCc5cccc(F)c5)c(Cl)c4)c3c2)o1 [Lapatinib] (first compound max 1 µM, 7x7, partner max 10 µM) | 0.27 | 0.955 | 0.407 | 0.791 | 0.927 | 0.192 | 0.303 | 0.453 | 0.9 | 0.996 | 0.792 | 0.277 | 0.52 | 1 | 0.763 | 0.32 | 0.41 | -0.118 | 0.0082 | 0.023 | -0.0054 | 0.0023 | -0.0142 | -0.0176 | 0.0446 | -0.0151 | 0.04 | -0.016 | -0.0282 | 0.0139 | -0.0004 | 0.109 | -0.0164 | -0.0112 |
| N#Cc1cnc(Nc2cc(NC[C@H]3CNCCO3)c(C(F)(F)F)cn2)cn1 [SRA737] + CCc1c2c(nc3ccc(O)cc13)-c1cc3c(c(=O)n1C2)COC(=O)[C@]3(O)CC [SN-38] (first compound max 10 µM, 7x7, partner max 0.3 µM) | 0.982 | 0.836 | 0.912 | 0.393 | 1 | 0.803 | 0.805 | 0.889 | 1 | 0.938 | 0.974 | 0.337 | 0.977 | 1 | 1 | 0.421 | 0.552 | -0.0262 | -0.102 | -0.028 | 0.0081 | -0.0069 | 0.019 | 0.0267 | – | -0.0145 | -0.0403 | -0.0573 | -0.0605 | 0.138 | -0.0272 | 0.0054 | -0.0968 | 0.04 |
